Test results taken from patent publication US4226610A, “Herbicidal compounds, preparation thereof and herbicides containing the same” (Meiji Selka Kaisha, Ltd., priority 1978, dated 1980).

Tests used:
chestnut = experiment: Experiment 2 foliar application in Japanese cypress afforested land; type: in vivo, Castanea crenata Sieb et Zucc.; details: 0.063%; after 30 days
Description: (§1) The detail of the assessment made in the following Experiments of the invention was as follows:
The compounds of the invention and other compounds listed in Table 4. were diluted to prescribed concentrations and sprayed to shrubs by foliar application in a Japanese cypress afforested land in an amount of 150 liter per 10 are.
After 30 days and 3 months, the killing index (0, no effect; 5, death) was determined.
The heights of plants were 50-70 cm. for Japanese cypress, about 50 cm. for chestnut, 50-90 cm. for miyakozasa, about 100 cm. for eulalia and 70-100 cm. for kumaichigo, respectively.

weeds and shrubs = experiment: Weeding effects, general statements; type: in vivo; details: as shown in Experiment 1
water hyacinth = experiment: Experiment 4 foliar application to water hyacinths with surfactants; type: in vivo, Eichhornia crassipes Solms; set-up: key to Killing index: killing index: 0 = no effect, 5 = death
Excerpt: as §1
Four months after treatment, evaluation was made for inhibition of reproduction expressed in terms of symbols ranging from (-) to (+++) where (-) means no reproduction, namely complete suppression of reproduction, (±) remarkable suppression of reproduction; (+) considerable suppression of reproduction; (++) medium supprestion of reproduction; and (+++) no suppression of reproduction.
Water was placed in 20 cm.×30 cm. plastic vessels and a liquid fertilizer was added thereto.
Two water hyacinths were floated in each vessel. 0.1 or 0.2% of each of surfactants listed in Table 6 were added to 0.1 or 0.2% aqueous solutions of DL-AMPB choline. Each solution was sprayed by foliar application in an amount of 100 liter per 10 are. The killing index (0, no effect; 5, death) after 21 days and 3 months and the reproduction-inhibiting effect (-, no reproduction; +++, maximum reproduction) after 3 months were determined.

[1] = 0.1%, octylphenyl polyoxyethanol 0.2%, 3 months

`CP(=O)(O)CC[C@H](N)C(=O)O` [L-AMPB choline, L-2-Amino-4-methylphosphino-butanoic acid choline] was tested. Which Killing index (chestnut) did it give?
The Killing index was 3.5.

And the “effectiveness relative to monosodium or monodiethylammonium salts of L-2-amino-4-methylphosphinobutanoic acid” value (weeds and shrubs)?
Its value is “twice effective”.

Which results are given for `CP(=O)(O)CCC(N)C(=O)O` (racemic) [DL-AMPB choline]?
Reproduction-inhibiting effect (water hyacinth; 0.1%, no surfactant, 3 months): +++; Reproduction-inhibiting effect (water hyacinth; 0.1%, octylphenyl polyoxyethanol 0.1%, 3 months): +; Killing index (water hyacinth; [1]): 4.5; Reproduction-inhibiting effect (water hyacinth; [1]): ±; Reproduction-inhibiting effect (water hyacinth; 0.1%, polyoxyethylene alkylaryl ether 0.1%, 3 months): ++; Killing index (water hyacinth; 0.1%, polyoxyethylene alkylaryl ether 0.1%, 21 days): 2.5; Reproduction-inhibiting effect (water hyacinth; 0.1%, polyoxyethylene alkylaryl ether 0.2%, 3 months): ±; Reproduction-inhibiting effect (water hyacinth; 0.1%, polyoxyethylene dodecyl ether 0.1%, 3 months): ++; Killing index (water hyacinth; 0.1%, polyoxyethylene dodecyl ether 0.1%, 21 days): 2.5; Reproduction-inhibiting effect (water hyacinth; 0.1%, polyoxyethylene dodecyl ether 0.2%, 3 months): ±; Reproduction-inhibiting effect (water hyacinth; 0.1%, polyoxyethylene sorbitan monooleate 0.1%, 3 months): ++; Killing index (water hyacinth; 0.1%, polyoxyethylene sorbitan monooleate 0.1%, 21 days): 2.5; Reproduction-inhibiting effect (water hyacinth; 0.1%, polyoxyethylene sorbitan monooleate 0.2%, 3 months): ±; Reproduction-inhibiting effect (water hyacinth; 0.1%, polyoxyethylene sorbitan monostearate 0.1%, 3 months): ++; Killing index (water hyacinth; 0.1%, polyoxyethylene sorbitan monostearate 0.1%, 21 days): 2.5; Reproduction-inhibiting effect (water hyacinth; 0.1%, polyoxyethylene sorbitan monostearate 0.2%, 3 months): ±; Killing index (water hyacinth; 0.2%, no surfactant, 3 months): 4.5; Reproduction-inhibiting effect (water hyacinth; 0.2%, no surfactant, 3 months): ±; Reproduction-inhibiting effect (water hyacinth; 0.2%, octylphenyl polyoxyethanol 0.1%, 3 months): -; Reproduction-inhibiting effect (water hyacinth; 0.2%, octylphenyl polyoxyethanol 0.2%, 3 months): -; Reproduction-inhibiting effect (water hyacinth; 0.2%, polyoxyethylene alkylaryl ether 0.1%, 3 months): -; Killing index (water hyacinth; 0.2%, polyoxyethylene alkylaryl ether 0.1%, 21 days): 4.5; Reproduction-inhibiting effect (water hyacinth; 0.2%, polyoxyethylene alkylaryl ether 0.2%, 3 months): -; Reproduction-inhibiting effect (water hyacinth; 0.2%, polyoxyethylene dodecyl ether 0.1%, 3 months): -; Killing index (water hyacinth; 0.2%, polyoxyethylene dodecyl ether 0.1%, 21 days): 4.5; Reproduction-inhibiting effect (water hyacinth; 0.2%, polyoxyethylene dodecyl ether 0.2%, 3 months): -; Reproduction-inhibiting effect (water hyacinth; 0.2%, polyoxyethylene sorbitan monooleate 0.1%, 3 months): -; Killing index (water hyacinth; 0.2%, polyoxyethylene sorbitan monooleate 0.1%, 21 days): 4.5; Reproduction-inhibiting effect (water hyacinth; 0.2%, polyoxyethylene sorbitan monooleate 0.2%, 3 months): -; Reproduction-inhibiting effect (water hyacinth; 0.2%, polyoxyethylene sorbitan monostearate 0.1%, 3 months): -; Killing index (water hyacinth; 0.2%, polyoxyethylene sorbitan monostearate 0.1%, 21 days): 4.5; Reproduction-inhibiting effect (water hyacinth; 0.2%, polyoxyethylene sorbitan monostearate 0.2%, 3 months): -
